For 15 compounds, IC50 results are on record in patent publication US20100216779A1 (GLAXOSMITHKLINE LLC, priority 2007, published 2010).

Common to all, as to assay type: cell-based
Experiment [1] addresses T1, human IGF-1R (NIH-3T3 cells over expressing human IGF-1R) (Homo sapiens, UniProt P08069).
T1 construct: expressed in transfected cells; host or cells: NIH-3T3 (mouse fibroblasts)
Briefly: IGF-1R cellular autophosphorylation (DELFIA). To be noted: IGF-1 stimulated. In outline: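 Autophosphorylation of IGF-1R or IR is measured in NIH-3T3 lines overexpressing each human receptor after 2 h compound pretreatment and a 15 min ligand challenge (IGF-1 30 ng/mL; insulin 3 ug/mL). Fluorescence is normalised to 100% stimulation.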

The next experiment concerns COLO205 (colon). Briefly: Inhibition of cell proliferation, CellTiter-Glo, COLO205. Particulars: Homo sapiens, COLO 205, 72 h. In outline:
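Exponentially growing COLO205 cells in medium with 10% FBS were plated below 2000 cells/well at 37 °C, 5% CO2. Untreated wells served as controls.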
A general note: In ATP-based viability assays light output follows the ATP content of the culture.

Experiment [2] concerns the target T2, IR (NIH-3T3 cells over expressing human IGF-1R or IR) (Homo sapiens, UniProt P06213).
T2 construct: expressed in transfected cells; host or cells: NIH-3T3 (mouse fibroblasts)
Briefly: IR cellular autophosphorylation (DELFIA). To be noted: NIH-3T3 cells over expressing IR, insulin stimulated. The method, then: D. IGF-1R and IR Cellular Autophosphorylation (DELFIA)
NIH-3T3 cells over expressing human IGF-1R or IR were plated in 96-well plates (10,000 cells/well) in culture media containing 10% fetal bovine serum and incubated at 37° C. in a 5% CO2 incubator. Twenty four hours post-plating, cells were treated with different concentrations of test compounds ranging from 30 uM to 1.5 nM. Two hours after compound addition, cells were stimulated with either human IGF-1 (30 ng/mL) or insulin (3 ug/mL) for 15 minutes. Cell lysates are analyzed for phosphorylated receptors using dissociation enhanced lanthanide fluor-immuno assay (DELFIA) with anti-IGF-1R (MAB391, R&D Systems, Minneapolis, Minn.) or anti-IR[…](sc-711, Santa Cruz Biotechnology, Santa Cruz, Calif.) capture antibody and europium-labeled anti-pTyr antibody (Eu-N1 PT66, Perkin Elmer, Waltham, Mass.) for detection. The fluorescence signal for cells treated with compounds was expressed as percent relative to 100% stimulation (IGF-1 or insulin stimulated signal). […]

T1 sequence (P08069 31-1367): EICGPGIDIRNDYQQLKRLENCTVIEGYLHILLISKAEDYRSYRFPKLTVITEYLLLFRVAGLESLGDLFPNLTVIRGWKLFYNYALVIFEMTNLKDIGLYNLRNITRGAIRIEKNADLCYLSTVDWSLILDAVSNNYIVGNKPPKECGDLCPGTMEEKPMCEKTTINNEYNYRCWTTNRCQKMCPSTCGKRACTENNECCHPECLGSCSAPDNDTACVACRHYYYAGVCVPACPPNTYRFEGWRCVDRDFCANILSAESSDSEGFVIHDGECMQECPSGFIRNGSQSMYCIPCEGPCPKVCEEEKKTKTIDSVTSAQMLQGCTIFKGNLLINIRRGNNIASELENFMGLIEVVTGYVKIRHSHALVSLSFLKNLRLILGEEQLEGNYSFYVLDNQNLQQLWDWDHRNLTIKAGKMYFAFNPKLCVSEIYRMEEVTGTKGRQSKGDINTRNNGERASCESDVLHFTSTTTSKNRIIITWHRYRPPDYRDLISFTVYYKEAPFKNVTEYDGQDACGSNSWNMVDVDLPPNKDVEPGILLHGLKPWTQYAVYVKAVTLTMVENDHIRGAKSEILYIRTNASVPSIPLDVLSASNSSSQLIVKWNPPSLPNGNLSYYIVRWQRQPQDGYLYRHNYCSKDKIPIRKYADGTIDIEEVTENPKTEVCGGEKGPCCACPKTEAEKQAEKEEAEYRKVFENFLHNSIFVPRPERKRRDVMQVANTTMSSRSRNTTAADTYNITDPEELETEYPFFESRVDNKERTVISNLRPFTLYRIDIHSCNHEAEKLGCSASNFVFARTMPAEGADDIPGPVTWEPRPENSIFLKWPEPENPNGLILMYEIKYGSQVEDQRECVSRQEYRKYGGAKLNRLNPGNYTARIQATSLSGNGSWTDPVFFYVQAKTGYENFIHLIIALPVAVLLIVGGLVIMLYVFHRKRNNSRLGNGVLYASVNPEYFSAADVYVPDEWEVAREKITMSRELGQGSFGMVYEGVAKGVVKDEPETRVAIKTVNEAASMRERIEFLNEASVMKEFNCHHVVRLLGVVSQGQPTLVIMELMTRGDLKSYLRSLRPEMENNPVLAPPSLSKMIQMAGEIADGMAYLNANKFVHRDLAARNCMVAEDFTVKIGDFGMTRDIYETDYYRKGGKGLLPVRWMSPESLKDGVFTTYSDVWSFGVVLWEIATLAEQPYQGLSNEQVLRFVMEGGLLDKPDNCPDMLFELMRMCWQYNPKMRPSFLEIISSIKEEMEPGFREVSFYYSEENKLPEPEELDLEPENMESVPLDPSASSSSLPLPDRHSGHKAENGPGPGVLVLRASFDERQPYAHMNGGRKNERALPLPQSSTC
T2 sequence (P06213 28-1382): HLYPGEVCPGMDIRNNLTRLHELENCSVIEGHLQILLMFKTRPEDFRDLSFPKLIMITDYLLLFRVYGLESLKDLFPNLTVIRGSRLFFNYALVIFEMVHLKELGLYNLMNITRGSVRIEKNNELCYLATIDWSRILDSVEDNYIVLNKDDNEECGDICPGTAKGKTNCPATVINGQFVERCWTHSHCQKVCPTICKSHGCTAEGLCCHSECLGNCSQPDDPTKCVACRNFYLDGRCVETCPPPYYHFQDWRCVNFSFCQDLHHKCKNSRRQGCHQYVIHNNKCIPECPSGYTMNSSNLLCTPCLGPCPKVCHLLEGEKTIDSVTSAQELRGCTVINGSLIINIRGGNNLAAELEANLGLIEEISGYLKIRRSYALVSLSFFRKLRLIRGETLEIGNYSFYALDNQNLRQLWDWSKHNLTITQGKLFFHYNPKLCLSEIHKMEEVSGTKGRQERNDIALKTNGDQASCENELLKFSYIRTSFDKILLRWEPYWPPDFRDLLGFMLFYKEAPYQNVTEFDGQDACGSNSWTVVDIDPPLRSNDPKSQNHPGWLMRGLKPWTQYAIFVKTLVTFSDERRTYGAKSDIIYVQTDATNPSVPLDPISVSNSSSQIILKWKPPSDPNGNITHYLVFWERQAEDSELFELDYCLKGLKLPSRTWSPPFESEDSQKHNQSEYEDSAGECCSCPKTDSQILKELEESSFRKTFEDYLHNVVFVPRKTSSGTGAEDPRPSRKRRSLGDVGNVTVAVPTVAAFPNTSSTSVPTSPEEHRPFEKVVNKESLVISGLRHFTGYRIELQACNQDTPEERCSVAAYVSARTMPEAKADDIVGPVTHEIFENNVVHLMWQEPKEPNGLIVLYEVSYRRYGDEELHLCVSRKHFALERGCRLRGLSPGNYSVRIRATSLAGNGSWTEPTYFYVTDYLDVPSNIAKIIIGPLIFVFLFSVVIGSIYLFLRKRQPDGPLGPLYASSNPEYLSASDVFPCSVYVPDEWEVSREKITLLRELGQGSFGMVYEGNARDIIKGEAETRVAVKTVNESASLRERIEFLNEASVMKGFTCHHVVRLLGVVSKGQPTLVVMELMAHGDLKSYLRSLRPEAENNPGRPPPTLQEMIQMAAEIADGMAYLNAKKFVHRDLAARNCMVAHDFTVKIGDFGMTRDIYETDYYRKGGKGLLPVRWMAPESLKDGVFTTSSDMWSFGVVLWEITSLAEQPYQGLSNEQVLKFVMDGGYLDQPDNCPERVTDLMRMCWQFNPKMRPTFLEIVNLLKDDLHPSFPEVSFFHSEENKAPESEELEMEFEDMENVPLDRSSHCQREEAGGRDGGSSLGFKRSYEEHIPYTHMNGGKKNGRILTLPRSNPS

Regarding `COc1cc(N2CCC(N3CCN(C)CC3)CC2)ccc1Nc1nccc(-c2c(-c3cccc(C(=O)Nc4c(F)cccc4F)c3)nc3ccccn23)n1` [Example 79, N-(2,6-difluorophenyl)-3-{3-[2-({2-(methyloxy)-4-[4-(4-methyl-1-piperazinyl)-1-piperidinyl]phenyl}amino)-4-pyrimidinyl]imidazo[1,2-a]pyridin-2-yl}benzamide], the IC50 (as a rule, the concentration that inhibits the measured activity by half) in experiment [1] was below 100 nM; with COLO205 (colon), below 250 nM; in experiment [2], below 100 nM.
As to `COc1cc(N2CCC(N3CCCCC3)CC2)ccc1Nc1nccc(-c2c(-c3ccc(OC)c(C(=O)Nc4c(F)cccc4F)c3)nc3ccccn23)n1` [Example 23, 5-[3-(2-{[4-(1,4′-bipiperidin-1-yl)-2-(methyloxy)phenyl]amino}-4-pyrimidinyl)imidazo[1,2-a]pyridin-2-yl]-N-(2,6-difluorophenyl)-2-(methyloxy)benzamide], the IC50 in experiment [1] was below 100 nM; in the experiment on COLO205 (colon), below 250 nM; in experiment [2], below 100 nM.
Turning to `COc1ccn2c(-c3ccnc(Nc4cccc(OCCN(C)C)c4)n3)c(-c3cccc(C(=O)Nc4cccc(F)c4F)c3)nc2c1` [Example 15, N-(2,3-difluorophenyl)-3-[3-{2-[(3-{[2-(dimethylamino)ethyl]oxy}phenyl)amino]-4-pyrimidinyl}-7-(methyloxy)imidazo[1,2-a]pyridin-2-yl]benzamide], the IC50 in experiment [1] is 100 to 500 nM; in the experiment with COLO205 (colon) it was below 250 nM; in experiment [2], above 500 nM.
In the case of `COc1cc(N2CCC(N3CCCCC3)CC2)ccc1Nc1nccc(-c2c(-c3cccc(C(=O)Nc4c(F)cccc4F)c3)nc3cc(C)ccn23)n1` [Example 18, 3-[3-(2-{[4-(1,4′-bipiperidin-1′-yl)-2-(methyloxy)phenyl]amino}-4-pyrimidinyl)-7-methylimidazo[1,2-a]pyridin-2-yl]-N-(2,6-difluorophenyl)benzamide], the figures for the 50% inhibitory concentration (IC50) (in experiment [1]; in the experiment on COLO205 (colon); in experiment [2]) were below 100 nM, 250 to 1000 nM and 100 to 500 nM, respectively.
On the same counts, the results for `COc1cc(N2CCC(N3CCC(C)CC3)CC2)ccc1Nc1nccc(-c2c(-c3cccc(C(=O)Nc4c(F)cccc4F)c3)nc3ccccn23)n1` [Example 46, N-(2,6-difluorophenyl)-3-[3-(2-{[4-(4-methyl-1,4′-bipiperidin-1′-yl)-2-(methyloxy)phenyl]amino}-4-pyrimidinyl)imidazo[1,2-a]pyridin-2-yl]benzamide] are 100 to 500 nM, above 1000 nM and 100 to 500 nM.
With `CC(C)Oc1cc(N2CCC(N3CCCCC3)CC2)ccc1Nc1nccc(-c2c(-c3cccc(C(=O)Nc4c(F)cccc4F)c3)nc3ccccn23)n1` [Example 35, 3-{3-[2-({4-(1,4′-bipiperidin-1′-yl)-2-[(1-methylethyl)oxy]phenyl}amino)-4-pyrimidinyl]imidazo[1,2-a]pyridin-2-yl}-N-(2,6-difluorophenyl)benzamide], the IC50 lay in the range of 100 to 500 nM in experiment [1], 250 to 1000 nM in the experiment with COLO205 (colon) and 100 to 500 nM in experiment [2].
In the case of `COc1cc(N2CCC(N3CCCC3)CC2)ccc1Nc1nccc(-c2c(-c3cccc(C(=O)Nc4c(F)cccc4F)c3)nc3ccccn23)n1` [Example 78, N-(2,6-difluorophenyl)-3-{3-[2-({2-(methyloxy)-4-[4-(1-pyrrolidinyl)-1-piperidinyl]-phenyl}amino)-4-pyrimidinyl]imidazo[1,2-a]pyridin-2-yl}benzamide], the IC50 in experiment [1] was below 100 nM; in the experiment with COLO205 (colon), below 250 nM; in experiment [2], below 100 nM.
For `CCOc1cc(N2CCN(C3CCN(CCF)CC3)CC2)ccc1Nc1nccc(-c2c(-c3cccc(C(=O)Nc4c(F)cccc4F)c3)nc3ccccn23)n1` [Example 91, N-(2,6-difluorophenyl)-3-(3-{2-[(2-(ethyloxy)-4-{4-[1-(2-fluoroethyl)-4-piperidinyl]-1-piperazinyl}phenyl)amino]-4-pyrimidinyl}imidazo[1,2-a]pyridin-2-yl)benzamide], the half-maximal inhibitory concentration (IC50) in experiment [1] is below 100 nM; in the experiment with COLO205 (colon), 250 to 1000 nM; in experiment [2], below 100 nM.
Regarding `COc1ccc(-c2nc3ccccn3c2-c2ccnc(Nc3cccc(OCCN(C)C)c3)n2)cc1C(=O)Nc1c(F)cccc1F` [Example 1, N-(2,6-difluorophenyl)-5-(3-{2-[(3-{[2-(dimethylamino)ethyl]oxy}phenyl)-amino]-4-pyrimidinyl}imidazo[1,2-a]pyridin-2-yl)-2-(methyloxy)benzamide], the figures for the IC50 (in experiment [1]; in the experiment on COLO205 (colon); in experiment [2]) were below 100 nM, below 250 nM and 100 to 500 nM, respectively.
Take `COc1cc(N2CCC(N3CCCCC3)CC2)ccc1Nc1nccc(-c2c(-c3cccc(C(=O)Nc4ccc(Cl)cc4F)c3)nc3ccccn23)n1` [Example 45, 3-[3-(2-{[4-(1,4′-bipiperidin-1′-yl)-2-(methyloxy)phenyl]amino}-4-pirimidinyl)imidazo[1,2-a]pyridin-2-yl]-N-(4-chloro-2-fluorophenyl)benzamide]: the half-inhibitory concentration (IC50) in experiment [1] is below 100 nM; with COLO205 (colon), 250 to 1000 nM; in experiment [2], 100 to 500 nM.
For the compound `COc1cc(N2CCC(N3C[C@@H](C)O[C@@H](C)C3)CC2)ccc1Nc1nccc(-c2c(-c3cccc(C(=O)Nc4c(F)cccc4F)c3)nc3ccccn23)n1` [Example 47, N-(2,6-difluorophenyl)-3-[3-(2-{[4-{4-[(2R,6S)-2,6-dimethyl-4-monpholinyl]-1-piperidinyl}-2-(methyloxy)phenyl]amino}-4-pyrimidinyl)imidazo[1,2-a]pyridin-2-yl]benzamide], the results for the IC50 (in experiment [1]; with COLO205 (colon); in experiment [2]) were below 100 nM, 250 to 1000 nM and 100 to 500 nM, respectively.
On to `COc1cc(N2CCC(N3CCCCC3)CC2)c(Cl)cc1Nc1nccc(-c2c(-c3ccc(OC)c(C(=O)Nc4c(F)cccc4F)c3)nc3ccccn23)n1` [Example 105, 5-[3-(2-{[4-(1,4′-bipiperidin-1′-yl)-5-chloro-2-(methyloxy)phenyl]amino]-4-pyrimidinyl)imidazo[1,2-a]pyridin-2-yl]-N-(2,6-difluorophenyl)-2-(methyloxy)benzamide], for which the IC50 in experiment [1] was below 100 nM; in the experiment with COLO205 (colon), below 250 nM; in experiment [2], below 100 nM.
Regarding `COc1cc(N2CCC(N3CCC(O)CC3)CC2)ccc1Nc1nccc(-c2c(-c3ccc(OC)c(C(=O)Nc4c(F)cccc4F)c3)nc3ccccn23)n1` [Example 81, N-(2,6-difluorophenyl)-5-[3-(2-{[4-(4-hydroxy-1,4′-bipiperidin-1′-yl)-2-(methyloxy)phenyl]-amino}-4-pyrimidinyl)imidazo[1,2-a]pyridin-2-yl]-2-(methyloxy)benzamide], the concentration for half-maximal inhibition (IC50) in experiment [1] is below 100 nM; with COLO205 (colon), below 250 nM; in experiment [2], below 100 nM.
In the case of `COc1cc(N2CCC(N3CCCCC3)CC2)ccc1Nc1nccc(-c2c(-c3cccc(C(=O)Nc4c(F)cccc4F)c3)nc3c(C)cccn23)n1` [Example 43, 3-[3-(2-{[4-(1,4′-bipiperidin-1-yl)-2-(methyloxy)phenyl]amino}-4-pyrimidinyl)-8-methylimidazo[1,2-a]pyridin-2-yl]-N-(2,6-difluorophenyl)benzamide], the IC50 in experiment [1] was below 100 nM; with COLO205 (colon), 250 to 1000 nM; in experiment [2] it was 100 to 500 nM.
For `COc1cc(N2CCC(N3CCCCC3)CC2)ccc1Nc1nccc(-c2c(-c3cccc(C(=O)Nc4ccc(F)cc4F)c3)nc3ccccn23)n1` [Example 72, 3-[3-(2-{[4-(1,4′-bipiperidin-1′-yl)-2-(methyloxy)phenyl]amino}-4-pyrimidinyl)imidazo[1,2-a]pyridin-2-yl]-N-(2,4-difluorophenyl)benzamide], in that order: below 100 nM, 250 to 1000 nM and below 100 nM.
